{"source": "paper PMC12073402", "about": "“A Selective MAP3K1 Inhibitor Facilitates Discovery of NPM1 as a Member of the Network” (Molecules, 2025)", "test_in_all_cases": "KiNativ kinome profiling in PANC-1 lysate", "format_in_all_cases": "binding", "key": {"ATM": {"target": "T1, ATM (Homo sapiens, UniProt Q13315)", "T1 construct": "endogenous in cells; host or cells: PANC-1 cell lysate", "conditions": "ATP", "procedure,_shortened": "(§1)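 PANC-1 lysates were incubated with 5 μM inhibitor or DMSO, then labeled with a desthiobiotin-ATP acyl-phosphate probe that biotinylates conserved kinase lysines. Tryptic peptides were streptavidin-enriched and quantified by LC-MS/MS, reported as % change in MS signal from duplicate treated and duplicate control samples.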"}, "AXL": {"target": "T2, AXL (Homo sapiens, UniProt P30530)", "T2 construct": "endogenous in cells; host or cells: PANC-1 cell lysate", "conditions": "Activation Loop", "procedure,_shortened": "as §1"}, "CDK7": {"target": "T3, CDK7 (Homo sapiens, UniProt P50613)", "T3 construct": "endogenous in cells; host or cells: PANC-1 cell lysate", "procedure,_shortened": "as §1"}, "CK1a": {"target": "T4, CK1a (Homo sapiens, UniProt P48729)", "T4 construct": "endogenous in cells; host or cells: PANC-1 cell lysate", "conditions": "Lys2", "procedure,_shortened": "as §1"}, "CK1d, CK1e": {"tested_on": "CK1d, CK1e", "conditions": "5 µM; Lys2; DVKPDNFLMGLGKK", "procedure,_shortened": "as §1"}, "CK1g3": {"target": "T5, CK1g3 (Homo sapiens, UniProt Q9Y6M4)", "T5 construct": "endogenous in cells; host or cells: PANC-1 cell lysate", "conditions": "Lys2", "procedure,_shortened": "as §1"}, "CLK1": {"target": "T6, CLK1 (Homo sapiens, UniProt P49759)", "T6 construct": "endogenous in cells; host or cells: PANC-1 cell lysate", "conditions": "Lys2", "procedure,_shortened": "as §1"}, "CaMK2d": {"target": "T7, CaMK2d (Homo sapiens, UniProt Q13557)", "T7 construct": "endogenous in cells; host or cells: PANC-1 cell lysate", "conditions": "Lys1", "procedure,_shortened": "as §1"}, "EGFR, EGFR-L858R": {"target": "T8, EGFR, EGFR-L858R (Homo sapiens, UniProt P00533)", "T8 construct": "endogenous in cells; host or cells: PANC-1 lysate", "T8 sequence (P00533 25-1210 L858R)": "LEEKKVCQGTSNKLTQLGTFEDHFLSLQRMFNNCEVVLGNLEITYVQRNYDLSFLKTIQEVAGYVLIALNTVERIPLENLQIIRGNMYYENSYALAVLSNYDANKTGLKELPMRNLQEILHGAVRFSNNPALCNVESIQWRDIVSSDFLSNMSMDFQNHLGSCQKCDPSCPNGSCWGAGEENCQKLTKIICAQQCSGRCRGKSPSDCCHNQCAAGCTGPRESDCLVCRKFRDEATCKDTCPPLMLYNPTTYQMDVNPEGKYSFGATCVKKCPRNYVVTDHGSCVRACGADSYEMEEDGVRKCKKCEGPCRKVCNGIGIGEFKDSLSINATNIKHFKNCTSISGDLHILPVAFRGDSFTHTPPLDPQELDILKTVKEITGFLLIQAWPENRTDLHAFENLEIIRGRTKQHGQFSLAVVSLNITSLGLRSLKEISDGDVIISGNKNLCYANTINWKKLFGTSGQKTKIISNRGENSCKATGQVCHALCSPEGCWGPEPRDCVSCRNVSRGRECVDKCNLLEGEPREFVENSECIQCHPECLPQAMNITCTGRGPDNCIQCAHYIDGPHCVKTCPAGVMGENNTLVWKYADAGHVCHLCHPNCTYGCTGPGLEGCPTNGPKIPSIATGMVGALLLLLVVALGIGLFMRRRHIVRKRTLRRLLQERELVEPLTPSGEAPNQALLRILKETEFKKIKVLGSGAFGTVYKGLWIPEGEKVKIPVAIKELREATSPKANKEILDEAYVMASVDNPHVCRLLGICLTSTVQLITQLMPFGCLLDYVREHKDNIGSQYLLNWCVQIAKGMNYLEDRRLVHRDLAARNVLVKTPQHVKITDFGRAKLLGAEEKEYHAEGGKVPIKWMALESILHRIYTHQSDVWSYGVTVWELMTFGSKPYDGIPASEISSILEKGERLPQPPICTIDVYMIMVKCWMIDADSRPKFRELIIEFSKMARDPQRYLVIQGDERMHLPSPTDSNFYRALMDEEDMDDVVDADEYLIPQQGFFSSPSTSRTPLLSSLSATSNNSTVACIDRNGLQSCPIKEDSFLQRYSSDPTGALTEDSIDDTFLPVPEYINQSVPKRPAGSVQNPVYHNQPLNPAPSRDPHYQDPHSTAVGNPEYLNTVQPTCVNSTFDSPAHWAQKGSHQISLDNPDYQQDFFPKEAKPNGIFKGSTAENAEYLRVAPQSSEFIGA", "procedure,_shortened": "as §1"}, "Erk3": {"target": "T9, Erk3 (Homo sapiens, UniProt Q16659)", "T9 construct": "endogenous in cells; host or cells: PANC-1 lysate", "conditions": "Lys2", "procedure,_shortened": "as §1"}, "FAK": {"target": "T10, FAK (Homo sapiens, UniProt Q05397)", "T10 construct": "endogenous in cells; host or cells: PANC-1 lysate", "T10 sequence (Q05397 whole entry)": "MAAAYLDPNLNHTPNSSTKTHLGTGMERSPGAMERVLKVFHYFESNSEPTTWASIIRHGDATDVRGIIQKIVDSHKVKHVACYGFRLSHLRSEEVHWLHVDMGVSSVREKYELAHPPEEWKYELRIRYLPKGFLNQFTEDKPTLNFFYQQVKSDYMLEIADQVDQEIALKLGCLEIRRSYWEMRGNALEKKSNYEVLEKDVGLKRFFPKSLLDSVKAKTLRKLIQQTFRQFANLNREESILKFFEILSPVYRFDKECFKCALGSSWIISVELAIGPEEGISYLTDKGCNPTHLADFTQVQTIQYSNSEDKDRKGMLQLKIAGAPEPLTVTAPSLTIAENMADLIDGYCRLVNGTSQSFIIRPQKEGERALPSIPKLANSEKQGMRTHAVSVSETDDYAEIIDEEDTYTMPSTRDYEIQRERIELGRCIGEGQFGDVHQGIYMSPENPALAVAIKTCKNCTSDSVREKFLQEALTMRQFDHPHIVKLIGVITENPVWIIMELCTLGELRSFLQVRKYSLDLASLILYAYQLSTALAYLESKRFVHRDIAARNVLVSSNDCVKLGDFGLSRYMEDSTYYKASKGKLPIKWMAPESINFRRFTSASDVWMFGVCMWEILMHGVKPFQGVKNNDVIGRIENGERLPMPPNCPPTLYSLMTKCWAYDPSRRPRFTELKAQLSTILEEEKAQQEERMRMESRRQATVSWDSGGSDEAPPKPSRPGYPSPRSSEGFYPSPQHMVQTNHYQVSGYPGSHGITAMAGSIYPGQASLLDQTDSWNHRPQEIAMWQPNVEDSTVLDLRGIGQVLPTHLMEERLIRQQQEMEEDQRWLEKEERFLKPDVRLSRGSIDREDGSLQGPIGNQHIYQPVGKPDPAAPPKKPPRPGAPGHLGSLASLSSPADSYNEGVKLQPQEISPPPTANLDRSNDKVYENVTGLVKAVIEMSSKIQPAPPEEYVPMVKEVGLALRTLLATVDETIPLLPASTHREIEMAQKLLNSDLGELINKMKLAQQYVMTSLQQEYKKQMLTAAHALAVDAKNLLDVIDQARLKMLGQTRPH", "procedure,_shortened": "as §1"}, "FRAP": {"target": "T11, FRAP (Homo sapiens, UniProt P42345)", "T11 construct": "endogenous in cells; host or cells: PANC-1 lysate", "conditions": "ATP", "procedure,_shortened": "as §1"}, "FYN, SRC, YES": {"tested_on": "FYN, SRC, YES", "conditions": "5 µM; ATP Loop; QGAKFPIKWTAPEAALYGR", "procedure,_shortened": "as §1"}, "ILK": {"target": "T12, ILK (Homo sapiens, UniProt Q13418)", "T12 construct": "we opted to conduct a kinome screen (KiNativ) in PANC-1 cell lysates; endogenous in cells; host or cells: PANC-1 cell lysate", "T12 sequence (Q13418 whole entry)": "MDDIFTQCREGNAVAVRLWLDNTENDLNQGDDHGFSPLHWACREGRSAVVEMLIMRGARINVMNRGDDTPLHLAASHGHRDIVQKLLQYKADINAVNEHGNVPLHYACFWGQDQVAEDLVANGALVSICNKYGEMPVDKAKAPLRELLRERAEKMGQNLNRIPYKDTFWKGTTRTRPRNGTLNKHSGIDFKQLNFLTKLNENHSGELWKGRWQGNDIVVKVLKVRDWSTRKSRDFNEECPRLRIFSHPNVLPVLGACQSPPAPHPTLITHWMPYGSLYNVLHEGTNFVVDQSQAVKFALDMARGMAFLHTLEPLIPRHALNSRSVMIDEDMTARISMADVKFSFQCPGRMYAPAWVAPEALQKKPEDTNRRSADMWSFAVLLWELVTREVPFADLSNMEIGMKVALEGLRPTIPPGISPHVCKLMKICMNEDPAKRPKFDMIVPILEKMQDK", "procedure,_shortened": "as §1"}, "IRE1": {"target": "T13, IRE1 (Homo sapiens, UniProt O75460)", "T13 construct": "we opted to conduct a kinome screen (KiNativ) in PANC-1 cell lysates; endogenous in cells; host or cells: PANC-1 cell lysate", "T13 sequence (O75460 19-977)": "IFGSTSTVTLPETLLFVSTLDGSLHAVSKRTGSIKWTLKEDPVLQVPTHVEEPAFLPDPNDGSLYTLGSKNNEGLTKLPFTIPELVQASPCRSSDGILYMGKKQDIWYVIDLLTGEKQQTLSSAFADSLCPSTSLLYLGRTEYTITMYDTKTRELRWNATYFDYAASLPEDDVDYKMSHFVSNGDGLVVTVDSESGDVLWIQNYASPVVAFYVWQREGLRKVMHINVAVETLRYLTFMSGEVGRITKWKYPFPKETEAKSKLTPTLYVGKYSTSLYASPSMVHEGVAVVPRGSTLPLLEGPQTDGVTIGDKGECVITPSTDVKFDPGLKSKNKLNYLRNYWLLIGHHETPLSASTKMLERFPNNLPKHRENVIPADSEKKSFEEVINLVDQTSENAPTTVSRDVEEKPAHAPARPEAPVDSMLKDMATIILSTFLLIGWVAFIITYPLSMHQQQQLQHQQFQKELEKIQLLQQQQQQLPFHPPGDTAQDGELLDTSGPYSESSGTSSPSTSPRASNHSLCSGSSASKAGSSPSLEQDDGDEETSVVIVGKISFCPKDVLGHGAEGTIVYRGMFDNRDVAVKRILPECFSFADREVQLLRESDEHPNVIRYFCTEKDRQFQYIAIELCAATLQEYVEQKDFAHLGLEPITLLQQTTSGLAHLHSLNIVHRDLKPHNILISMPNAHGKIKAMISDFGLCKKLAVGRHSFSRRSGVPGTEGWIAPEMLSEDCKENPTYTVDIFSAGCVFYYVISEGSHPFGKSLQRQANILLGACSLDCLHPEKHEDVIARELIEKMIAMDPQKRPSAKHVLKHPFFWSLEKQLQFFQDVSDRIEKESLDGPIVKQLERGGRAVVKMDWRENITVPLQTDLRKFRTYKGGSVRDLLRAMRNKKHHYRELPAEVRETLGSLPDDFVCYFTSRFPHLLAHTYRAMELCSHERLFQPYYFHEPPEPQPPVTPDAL", "procedure,_shortened": "as §1"}, "JAK1 domain2": {"target": "T14, JAK1 domain2 (Homo sapiens, UniProt P23458)", "T14 construct": "we opted to conduct a kinome screen (KiNativ) in PANC-1 cell lysates; endogenous in cells; host or cells: PANC-1 cell lysate", "T14 sequence (P23458 whole entry, the tested form may be a part)": "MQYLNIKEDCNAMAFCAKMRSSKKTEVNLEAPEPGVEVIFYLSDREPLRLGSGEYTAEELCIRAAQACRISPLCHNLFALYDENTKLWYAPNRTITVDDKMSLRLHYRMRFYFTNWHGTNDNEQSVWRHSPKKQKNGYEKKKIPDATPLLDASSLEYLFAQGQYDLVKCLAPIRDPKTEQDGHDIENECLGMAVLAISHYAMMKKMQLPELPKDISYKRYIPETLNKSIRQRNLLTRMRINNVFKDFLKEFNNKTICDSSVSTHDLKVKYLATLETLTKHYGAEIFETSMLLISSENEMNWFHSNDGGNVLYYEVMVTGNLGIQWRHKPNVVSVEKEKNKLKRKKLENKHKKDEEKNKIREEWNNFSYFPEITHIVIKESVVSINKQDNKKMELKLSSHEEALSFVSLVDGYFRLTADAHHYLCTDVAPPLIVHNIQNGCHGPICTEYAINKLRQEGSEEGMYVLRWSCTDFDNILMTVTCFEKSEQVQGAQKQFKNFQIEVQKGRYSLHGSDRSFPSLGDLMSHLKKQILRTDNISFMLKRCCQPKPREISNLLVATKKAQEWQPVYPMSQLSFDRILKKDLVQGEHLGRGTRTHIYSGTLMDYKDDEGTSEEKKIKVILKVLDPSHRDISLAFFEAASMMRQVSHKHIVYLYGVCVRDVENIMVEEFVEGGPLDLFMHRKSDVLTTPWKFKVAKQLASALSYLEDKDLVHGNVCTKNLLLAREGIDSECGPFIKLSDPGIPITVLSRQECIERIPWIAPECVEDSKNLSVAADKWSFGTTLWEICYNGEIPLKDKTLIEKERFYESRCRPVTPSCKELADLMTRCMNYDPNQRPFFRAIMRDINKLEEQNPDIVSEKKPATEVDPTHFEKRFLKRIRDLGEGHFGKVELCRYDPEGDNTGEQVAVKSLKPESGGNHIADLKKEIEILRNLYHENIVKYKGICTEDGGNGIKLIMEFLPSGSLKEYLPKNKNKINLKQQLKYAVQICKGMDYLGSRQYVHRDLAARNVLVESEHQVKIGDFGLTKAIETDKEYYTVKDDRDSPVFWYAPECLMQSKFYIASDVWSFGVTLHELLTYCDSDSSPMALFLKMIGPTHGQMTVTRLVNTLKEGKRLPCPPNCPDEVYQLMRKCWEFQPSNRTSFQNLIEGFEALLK", "procedure,_shortened": "as §1"}, "MAP2K1": {"target": "T15, MAP2K1 (Homo sapiens, UniProt Q02750)", "T15 construct": "endogenous in cells; host or cells: PANC-1 cell lysate", "conditions": "Lys2", "procedure,_shortened": "as §1"}, "MELK": {"target": "T16, MELK (Homo sapiens, UniProt Q14680)", "T16 construct": "endogenous in cells; host or cells: PANC-1", "conditions": "Lys2", "procedure,_shortened": "as §1"}, "NEK8": {"target": "T17, NEK8 (Homo sapiens, UniProt Q86SG6)", "T17 construct": "endogenous in cells; host or cells: PANC-1 cell lysate", "conditions": "Lys2", "procedure,_shortened": "as §1"}, "PIP4K2B": {"target": "T18, PIP4K2B (Homo sapiens, UniProt P78356)", "T18 construct": "endogenous in cells; host or cells: PANC-1 cell lysate", "conditions": "ATP", "procedure,_shortened": "as §1"}, "RSK2 domain2": {"target": "T19, RSK2 domain2 (Homo sapiens, UniProt P51812)", "T19 construct": "endogenous in cells; host or cells: PANC-1 cell lysate", "conditions": "Lys2", "procedure,_shortened": "as §1"}, "SRPK2": {"target": "T20, SRPK2 (Homo sapiens, UniProt P78362)", "T20 construct": "endogenous in cells; host or cells: PANC-1 cell lysate", "conditions": "Lys2", "procedure,_shortened": "as §1"}, "TAO2": {"target": "T21, TAO2 (Homo sapiens, UniProt Q9UL54)", "T21 construct": "endogenous in cells; host or cells: PANC-1 cell lysate", "conditions": "Lys2", "procedure,_shortened": "as §1"}, "TLK2": {"target": "T22, TLK2 (Homo sapiens, UniProt Q86UE8)", "T22 construct": "endogenous in cells; host or cells: PANC-1 cell lysate", "procedure,_shortened": "as §1"}, "ZC2/TNIK": {"target": "T23, ZC2/TNIK (Homo sapiens, UniProt Q9UKE5)", "T23 construct": "endogenous in cells; host or cells: PANC-1 cell lysate", "conditions": "Lys1", "procedure,_shortened": "as §1"}, "p70S6Kb": {"target": "T24, p70S6Kb (Homo sapiens, UniProt Q9UBS0)", "T24 construct": "endogenous in cells; host or cells: PANC-1 cell lysate", "conditions": "Lys2", "procedure,_shortened": "as §1"}}}
{"smiles": "Cn1cc(-c2cnc3ccc(NC(=O)Nc4ccc(F)c(C(F)(F)F)c4)cc3n2)cn1", "note": "[51-106, 1-(4-Fluoro-3-(trifluoromethyl)phenyl)-3-(3-(1-methyl-1H-pyrazol-4-yl)quinoxalin-6-yl)urea]", "values": [{"measurement": "inhibition at 5 µM", "setting": "ATM", "result": 7.4, "unit": "%"}, {"measurement": "inhibition at 5 µM", "setting": "AXL", "result": "≤ 0", "unit": "%"}, {"measurement": "inhibition at 5 µM", "setting": "CDK7; Lys1, DKNTNQIVAIKK", "result": 16.6, "unit": "%"}, {"measurement": "inhibition at 5 µM", "setting": "CDK7; Lys2, DLKPNNLLLDENGVLK", "result": 1.6, "unit": "%"}, {"measurement": "inhibition at 5 µM", "setting": "CK1a", "result": 11.1, "unit": "%"}, {"measurement": "% Inhibition", "setting": "CK1d, CK1e", "result": "NB (NB = No Binding (≤ 0))"}, {"measurement": "inhibition at 5 µM", "setting": "CK1g3", "result": 11.5, "unit": "%"}, {"measurement": "inhibition at 5 µM", "setting": "CLK1", "result": 0.5, "unit": "%"}, {"measurement": "inhibition at 5 µM", "setting": "CaMK2d", "result": "≤ 0", "unit": "%"}, {"measurement": "inhibition at 5 µM", "setting": "EGFR, EGFR-L858R; ATP Loop, LLGAEEKEYHAEGGKVPIK", "result": "≤ 0", "unit": "%"}, {"measurement": "inhibition at 5 µM", "setting": "EGFR, EGFR-L858R; Lys1, IPVAIKELR", "result": 5.5, "unit": "%"}, {"measurement": "inhibition at 5 µM", "setting": "Erk3", "result": "≤ 0", "unit": "%"}, {"measurement": "inhibition at 5 µM", "setting": "FAK; ATP Loop, YMEDSTYYKASK", "result": 22.5, "unit": "%"}, {"measurement": "inhibition at 5 µM", "setting": "FAK; Lys1, CIGEGQFGDVHQGIYMSPENPALAVAIKTCK", "result": 2.8, "unit": "%"}, {"measurement": "inhibition at 5 µM", "setting": "FRAP", "result": "≤ 0", "unit": "%"}, {"measurement": "% Inhibition", "setting": "FYN, SRC, YES", "result": 14.0, "unit": "%"}, {"measurement": "% Inhibition", "setting": "ILK; 5 µM, Protein Kinase Domain, ISMADVKFSFQCPGR", "result": "NB (NB = No Binding (≤ 0))"}, {"measurement": "inhibition at 5 µM", "setting": "ILK; Lys1, […]", "result": "≤ 0", "unit": "%"}, {"measurement": "inhibition at 5 µM", "setting": "IRE1; Lys1, GMFDNRDVAVKR", "result": 8.9, "unit": "%"}, {"measurement": "inhibition at 5 µM", "setting": "IRE1; Lys2, DLKPHNILISMPNAHGK", "result": "≤ 0", "unit": "%"}, {"measurement": "% Inhibition", "setting": "JAK1 domain2; 5 µM, ATP Loop, IGDFGLTKAIETDKEYYTVK", "result": "NB (NB = No Binding (≤ 0))"}, {"measurement": "inhibition at 5 µM", "setting": "JAK1 domain2; Lys1, […]", "result": "≤ 0", "unit": "%"}, {"measurement": "inhibition at 5 µM", "setting": "MAP2K1", "result": 11, "unit": "%"}, {"measurement": "inhibition at 5 µM", "setting": "MELK", "result": "≤ 0", "unit": "%"}, {"measurement": "inhibition at 5 µM", "setting": "NEK8", "result": "≤ 0", "unit": "%"}, {"measurement": "inhibition at 5 µM", "setting": "PIP4K2B", "result": "≤ 0", "unit": "%"}, {"measurement": "inhibition at 5 µM", "setting": "RSK2 domain2", "result": 5.7, "unit": "%"}, {"measurement": "inhibition at 5 µM", "setting": "SRPK2", "result": "≤ 0", "unit": "%"}, {"measurement": "inhibition at 5 µM", "setting": "TAO2", "result": 5.5, "unit": "%"}, {"measurement": "inhibition at 5 µM", "setting": "TLK2; Lys1, YVAVKIHQLNK", "result": 1.2, "unit": "%"}, {"measurement": "inhibition at 5 µM", "setting": "TLK2; Lys2, YLNEIKPPIIHYDLKPGNILLVNGTACGEIK", "result": 1.7, "unit": "%"}, {"measurement": "inhibition at 5 µM", "setting": "ZC2/TNIK", "result": 11.2, "unit": "%"}, {"measurement": "inhibition at 5 µM", "setting": "p70S6Kb", "result": 22.5, "unit": "%"}]}
